#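 Interpolation was linear, between the two tested concentrations surrounding the appropriate level; five concentrations were tested over 48 hours in 96-well plates. Here, GI50 denotes the concentration required for 50% inhibition of growth. The concentration for full growth arrest is given as TGI.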
# Assays:
# Test in all cases: DTP human tumour cell line panel, 48 h
# A498 renal = tested on: A498 renal
# SR leukemia = tested on: SR leukemia
# NCI-H226 lung = tested on: NCI-H226 lung
# 786-0 renal = tested on: 786-0 renal
# A549 NSCLC = tested on: A549 NSCLC
# SF-295 CNS = tested on: SF-295 CNS
# SK-MEL-28 melanoma = tested on: SK-MEL-28 melanoma
# SK-MEL-5 melanoma = tested on: SK-MEL-5 melanoma
# TK-10 renal = tested on: TK-10 renal
# T-47D breast = tested on: T-47D breast
SMILES,TGI (A498 renal),TGI (SR leukemia),TGI (NCI-H226 lung),TGI (786-0 renal),TGI (A549 NSCLC),TGI (SF-295 CNS),TGI (SK-MEL-28 melanoma),TGI (SK-MEL-5 melanoma),TGI (TK-10 renal),TGI (T-47D breast),GI50 (A498 renal),GI50 (SR leukemia),GI50 (A549 NSCLC),GI50 (SF-295 CNS),GI50 (SK-MEL-28 melanoma),GI50 (SK-MEL-5 melanoma),GI50 (TK-10 renal),GI50 (NCI-H226 lung),GI50 (T-47D breast)
CCC(C)C(N)C(=O)NC(CC(N)=O)C(=O)NC(CC(C)C)C(=O)NC(CCCCN)C(=O)NC(C)C(=O)NC(CC(C)C)C(=O)NC(C)C(=O)NC(C)C(=O)NC(CC(C)C)C(=O)NC(C)C(=O)NC(CCCCN)C(=O)NC(CCCCN)C(=O)NC(C(=O)NC(CC(C)C)C(N)=O)C(C)CC (centres undefined),32.5 µM,46.1 µM,29 µM,13.7 µM,24.9 µM,35.3 µM,22 µM,14.3 µM,27.6 µM,,,,,,,,,,
O=c1c2ccccc2[nH]n1Cc1ccccc1,> 100 µM,> 100 µM,> 100 µM,> 100 µM,> 100 µM,> 100 µM,> 100 µM,> 100 µM,> 100 µM,> 100 µM,,,,,,,,,
COc1cc(OC)cc(-c2ccc(-c3ccc(C(=N)N)cn3)o2)c1,2.51 µM,3.96 µM,,,3.52 µM,3.46 µM,3.16 µM,2.97 µM,3.26 µM,,1.22 µM,1.73 µM,1.86 µM,1.86 µM,1.65 µM,1.6 µM,1.79 µM,,
Cc1[nH]c(=O)[nH]c(=O)c1/C=C/C(=O)O (tested in a mixture with another compound),> 625 µM,,> 625 µM,,> 625 µM,> 625 µM,> 625 µM,> 625 µM,,,,,,,,,,,
OC1c2ccccc2CCC1CN1CCN(CCOC(c2ccc(F)cc2)c2ccc(F)cc2)CC1 (centres undefined),26.9 µM,> 100 µM,28.3 µM,25 µM,> 100 µM,46.1 µM,26.6 µM,16.5 µM,42.4 µM,52.9 µM,,,,,,,,,
CSCC[C@@H]1C(=O)N(C)[C@H](C(C)(C)C)N1C(=O)c1ccccc1,> 100 µM,,> 100 µM,,> 100 µM,> 100 µM,> 100 µM,> 100 µM,,,,,,,,,,,
CSc1nc(C)cc(Nc2ccc(O)c(CN3CCOCC3)c2)n1,> 100 µM,> 100 µM,> 100 µM,> 100 µM,> 100 µM,> 100 µM,> 100 µM,> 100 µM,> 100 µM,> 100 µM,,,,,,,,,
N#CC(N=Nc1ccccc1C(=O)O)C(N)=O (centres undefined),,> 100 µM,> 100 µM,> 100 µM,> 100 µM,> 100 µM,> 100 µM,> 100 µM,> 100 µM,> 100 µM,,,,,,,,,
COc1cc2c3cc1Oc1c(O)c(OC)cc4c1C(Cc1ccc(O)c(c1)Oc1ccc(cc1)CC3N(C)CC2)N(C)CC4 (centres undefined),32.2 µM,,38.3 µM,25.9 µM,31.4 µM,29.7 µM,32.8 µM,32.9 µM,18.2 µM,,,,,,,,,,
CC(CC(N)C(=O)O)C(=O)O (centres undefined),> 100 µM,> 100 µM,> 100 µM,> 100 µM,> 100 µM,> 100 µM,> 100 µM,> 100 µM,> 100 µM,> 100 µM,,,,,,,,,
COc1cccc(/C=N/NC(=O)CSCC(=O)N/N=C/c2cccc(OC)c2OC)c1OC,> 100 µM,> 100 µM,> 100 µM,> 100 µM,> 100 µM,> 100 µM,> 100 µM,> 100 µM,> 100 µM,> 100 µM,,,,,,,,,
CN(C)c1ccc(/C=C/c2ccc(S(N)(=O)=O)cc2)cc1,40.3 µM,> 100 µM,33 µM,35.4 µM,26.2 µM,46.8 µM,28 µM,25.8 µM,39.8 µM,80.4 µM,,8.58 µM,10.1 µM,,,,,12.1 µM,
CC1(C)[C@@H]2CC[C@]1(C)[C@H](OC(=O)/C=C/c1ccccc1)C2,32.3 µM,,36.4 µM,32.3 µM,> 100 µM,36.3 µM,50.4 µM,30.5 µM,> 100 µM,34.2 µM,,,,,,,,,
COc1nc2cccc(C(O)c3ccccc3)c2nc1-c1ccccc1 (centres undefined),11.7 µM,12.4 µM,13.3 µM,,54.5 µM,17 µM,> 100 µM,13.1 µM,> 100 µM,61.6 µM,,,,,,,,,
O=C1C=CC2OC(c3ccccc3)C(O)C2O1 (centres undefined),5.85 µM,,5.2 µM,,14.5 µM,19.6 µM,11.8 µM,17.1 µM,,,,,,,,,,,
COc1cc(C(=O)O[C@H](C(=O)NCCCNC(=O)[C@@H](OC(=O)c2cc(OC)cc3c(C)cccc23)[C@]2(C)CO2)[C@]2(C)CO2)c2cccc(C)c2c1,1.83 µM,,0.762 µM,,0.718 µM,0.562 µM,0.142 µM,0.178 µM,0.28 µM,0.839 µM,,,0.128 µM,,< 0.0375 µM,< 0.0154 µM,0.0275 µM,0.151 µM,0.0595 µM
CC(=O)c1[nH]c(NC(C)C)c(C(=S)Nc2ccccc2)c1N,82.9 µM,76.8 µM,60.4 µM,61.8 µM,94.3 µM,> 100 µM,87.7 µM,42.2 µM,> 100 µM,82.6 µM,,,,,,,,,
Cc1c[n+]2c3ccccc3c3ccccc3c2s1,> 100 µM,32.3 µM,3.89 µM,> 100 µM,> 100 µM,33.5 µM,18 µM,17.9 µM,> 70.9 µM,,,,,,,,,,
C=CCN1/C(=C(\C#N)c2nc3ccccc3[nH]2)Sc2c1nc[nH]c2=O,> 100 µM,> 100 µM,,,> 100 µM,> 100 µM,> 100 µM,> 100 µM,> 100 µM,,,,,,,,,,
OCC1COc2cc(Cl)c(Cl)cc2O1 (centres undefined),> 10 µM,> 10 µM,> 10 µM,,> 10 µM,> 10 µM,> 10 µM,> 10 µM,> 10 µM,> 10 µM,,,,,,,,,
COc1cc(C2c3cc4c(cc3[C@@H](Nc3cccc(CO)c3)C3COC(=O)[C@H]23)OCO4)cc(OC)c1O (some centres undefined),1.77 µM,,1.7 µM,,1.96 µM,5.05 µM,22.7 µM,2.28 µM,,,,,,,,,,,
